Among the data in US20240383915A1, “OXAZEPINE COMPOUNDS AND USES THEREOF IN THE TREATMENT OF CANCER” (Genentech, Inc., priority 2021, published 2024) are IC50 values, retold here.

Bounds are passed on as bounds.

Experiment [1] concerns KRAS wild type human lung adenocarcinoma cell line (PC-9). The experiment can be described thus: KRAS 3D-cell proliferation assay, CTG panel non G12D. The format is cell-based. Particulars: 168 h, CellTiter-Glo 3D, 7 days. As for the experimental part:
(§1) KRAS 3D-Cell Proliferation Assays. Cellular potencies of compounds were assessed by evaluating inhibition of proliferation in 3D cultures of homozygous mutant KRAS G12D human pancreatic cell lines (AsPC-1 and SW1990) as compared to a KRAS wild type human lung adenocarcinoma cell line (PC-9). Cells were seeded into 384-well black round-bottom, ultra-low attachment assay plates in 50 μL cell growth medium (RPMI-1640 with 10% fetal bovine serum and 2 mM L-glutamine). After overnight incubation at 37° C. and 5% CO2, compounds solubilized in DMSO were added as dilution series to the wells in a total volume of 150 nL (0.3% DMSO final). The cells were incubated for 7 days at 37° C. and 5% CO2. Cell proliferation was quantitated by addition of 40 μL/well of CellTiter-Glo® 3D (Promega). This reagent in combination with mechanical disruption releases the cellular ATP to promote activity in a luciferase-based enzyme/substrate chemiluminescent detection system. After a 25-minute incubation under ambient conditions with shaking and an additional 10 minutes without shaking, the contents of the wells were mixed by pipetting up and down repeatedly to disrupt the spheroids, and then the plates were centrifuged to remove bubbles. The plates were incubated for another 15 minutes under ambient conditions, and the luminescence read on a plate reader (e.g. EnVision [PerkinElmer]). […] The normalized luminescence results were plotted against compound concentration, and the data fit to a 4-parameter Hill equation to determine the IC50 values.

In another experiment the target is KRAS G12D (Homo sapiens (Human), UniProt P01116, G12D). Nature of the experiment: KRas (G12D) GDP HTRF (BODIPY-GDP exchange TR-FRET). Format: biochemical. As for the experimental part: (§2) KRAS Biochemical Assay—BODIPY-GDP Exchange TR-FRET. Biochemical compound potencies were assessed by evaluating inhibition of SOS1-mediated nucleotide exchange in KRAS G12D. The SOS1-promoted exchange of fluorescently-labeled GDP (BODIPY-GDP) was monitored by time-resolved fluorescence resonance energy transfer (TR-FRET). Compounds solubilized in DMSO were dispensed as concentration series into 384-well white assay plates. A preformed complex of biotin-tagged recombinant human KRAS (1.5 nM mutant G12D or wild type) and 0.15 nM terbium-labeled streptavidin (CisBIO) prepared in 10 μL/well assay buffer (20 mM HEPES, pH 7.5, 50 mM NaCl, 10 mM MgCl2, 0.01% Tween-20 and 1 mM dithiothreitol) was added and allowed to incubate for 10-minutes. The reaction was initiated with the addition of 5 μL of 3 nM recombinant human SOS1 and 300 nM BODIPY-GDP in assay buffer. After a 60-minute incubation, the fluorescence was measured with excitation at 337 nm and emission at 490 and 520 nm. The TR-FRET ratio was determined as the fluorescence at 520 nm divided by the fluorescence at 490 nm multiplied by 10,000. […] The normalized TR-FRET results were plotted against compound concentration, and the data fit to a 4-parameter Hill equation to determine the IC50 values.
(In general: Time-resolved FRET reads energy transfer from a long-lived donor to a nearby acceptor.)

The target of experiment [2] is Raf-RBD/KRAS G12D interaction (Homo sapiens (Human), UniProt P01116, G12D). Nature of the experiment: KRAS G12D NanoBRET assay. The format is cell-based. To be noted: HCT116. As for the experimental part:
KRAS G12D NanoBRET Assay. Cellular target engagement was assessed by monitoring inhibition of the Raf-RBD/KRAS G12D interaction in a NanoBRET™ assay (Promega). […] Cells were seeded into 384-well white tissue culture-treated assay plates in 40 μL culture medium (RPMI-1640 with 10% fetal bovine serum, 2 mM glutamine, […] puromycin, and 4 ng/mL blasticidin) with doxycycline to induce KRAS G12D-nanoluciferase expression over 20-24 h at 37° C., 5% CO2. The culture medium was then removed and replaced with assay medium (Opti-MEM® with 4% fetal bovine serum) and 0.1 μM HaloTag618 ligand. During the subsequent 4 h incubation at 37° C., 5% CO2, the HaloTag618 ligand binds to the Halotag-labeled KRAS G12D. Compounds solubilized in DMSO were then added as dilution series to the wells in a total volume of 160 nL (0.4% DMSO final), and the plates were incubated overnight at 37° C., 5% CO2. In the final step, 10 μL NanoGlo substrate in Opti-MEM was added to each well, and the emission read at 460 nm (luciferase signal) and 610 nm (NanoBRET signal) on an EnVision plate reader (PerkinElmer). The Raf-RBD/KRAS G12D interaction results in bioluminescence resonance energy transfer (BRET) from the product of the luciferase reaction in the vicinity of the Raf-RBD to the HaloTag ligand acceptor on the KRAS G12D and generates the NanoBRET signal. Binding of compounds to KRAS G12D and disruption of its interaction with Raf-RBD results in reduction of this signal. The luciferase signal and NanoBRET signal for compound wells were divided by the average corresponding signal for DMSO control wells. Then the NanoBRET ratio was calculated by dividing the control-adjusted NanoBRET signal by the similarly adjusted luciferase signal. […] The normalized NanoBRET ratio results were plotted against compound concentration, and the data fit to a 4-parameter Hill equation to determine the IC50 values.

The target of another experiment is KRAS wild type (Homo sapiens (Human), UniProt P01116). The experiment can be described thus: KRas (wt) GDP HTRF (BODIPY-GDP exchange TR-FRET). The format is biochemical. As for the experimental part:
as §2

Experiment [3] has as its system KRAS G12D human pancreatic cell lines (AsPC-1 and SW1990). The experiment can be described thus: KRAS 3D-cell proliferation assay, CTG panel (G12D). The format is cell-based. Particulars: 168 h, CellTiter-Glo 3D, 7 days. The procedure: as §1

Chain of KRAS wild type (P01116-2 other isoform, or with tags, fused parts or gaps): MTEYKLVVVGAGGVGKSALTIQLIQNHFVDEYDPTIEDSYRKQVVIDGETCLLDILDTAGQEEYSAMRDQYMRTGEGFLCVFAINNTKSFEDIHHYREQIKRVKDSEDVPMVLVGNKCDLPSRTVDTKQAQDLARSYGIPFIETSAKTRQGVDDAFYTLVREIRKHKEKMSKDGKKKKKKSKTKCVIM
Chain of Raf-RBD/KRAS G12D interaction (P01116-2 other isoform, or with tags, fused parts or gaps G12D): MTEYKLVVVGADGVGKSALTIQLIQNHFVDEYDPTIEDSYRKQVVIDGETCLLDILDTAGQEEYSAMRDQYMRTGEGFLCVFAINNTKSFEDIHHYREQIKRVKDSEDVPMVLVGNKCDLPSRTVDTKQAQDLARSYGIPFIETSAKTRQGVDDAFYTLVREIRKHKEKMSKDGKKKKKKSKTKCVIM
Chain of KRAS G12D (P01116-2 other isoform, or with tags, fused parts or gaps G12D): as above

The IC50 is the concentration that gives 50% inhibition. For `C=C1CN2CCC[C@@]2(COc2nc3c4c(c(F)c(-c5nc(N)cc(C)c5C(F)(F)F)c(F)c4n2)OCCN3CCN(C)C)C1` (single isomer, unassigned) [Example 523], the IC50 in experiment [1] was 7.7 µM; on KRAS G12D, 0.0119 µM; in experiment [2], not below 10 µM; against KRAS wild type, 0.088 µM.

As to `Cc1cc(N)nc(-c2cc3ncnc4c3c(c2Cl)OCCN4CCN(C)C)c1C(F)(F)F` [Example 501, 6-(8-Chloro-4-(2-(dimethylamino)ethyl)-5,6-dihydro-4H-[1,4]oxazepino[5,6,7-de]quinazolin-9-yl)-4-methyl-5-(trifluoromethyl)pyridin-2-amine], the figures for the half-inhibitory concentration (IC50) (against KRAS G12D; in experiment [2]; on KRAS wild type) were 4.16 µM, not below 10 µM and 109 µM, respectively.

As to `Cc1cc(N)nc(-c2cc3ncnc4c3c(c2Cl)OCCN4CCN(C)CCO)c1C(F)(F)F` [Example 502, 2-((2-(9-(6-Amino-4-methyl-3-(trifluoromethyl)pyridin-2-yl)-8-chloro-5,6-dihydro-4H-[1,4]oxazepino[5,6,7-de]quinazolin-4-yl)ethyl)(methyl)amino)ethan-1-ol], the IC50 in experiment [1] is 7.88 µM; at KRAS G12D it was 2.77 µM; in experiment [2] it was not below 10 µM; in experiment [3], 9.65 µM; against KRAS wild type, 71.4 µM.

With `Cc1cc(N)nc(-c2cc3nc(OC[C@@H]4C[C@@H](F)CN4C)nc4c3c(c2Cl)OCCN4CCN(C)C)c1C(F)(F)F` [Example 509, 6-(8-Chloro-4-(2-(dimethylamino)ethyl)-2-(((2S,4R)-4-fluoro-1-methylpyrrolidin-2-yl)methoxy)-5,6-dihydro-4H-[1,4]oxazepino[5,6,7-de]quinazolin-9-yl)-4-methyl-5-(trifluoromethyl)pyridin-2-amine], the concentration for half-maximal inhibition (IC50) was determined as 0.164 µM on KRAS G12D, 9.85 µM in experiment [2] and 1.66 µM on KRAS wild type.

Consider `Cc1cc(N)nc(-c2cc3ncnc4c3c(c2Cl)OC[C@H](CC#N)N4C2CCNC2)c1C(F)(F)F` (single isomer, unassigned) [Example 508], for which the figures for the IC50 (against KRAS G12D; in experiment [2]; against KRAS wild type) were 0.472 µM, not below 10 µM and 8.11 µM, respectively.

Take `Cc1cc(N)nc(-c2cc3ncnc4c3c(c2Cl)OCCN4C2CCNC2)c1C(F)(F)F` (stereo not drawn) [Example 505]: the IC50 at KRAS G12D was 1.73 µM; in experiment [2], not below 10 µM; against KRAS wild type, 66.4 µM.

`C=C1CN2CCC[C@@]2(COc2nc3c4c(c(Cl)c(-c5nc(N)cc(C)c5C(F)(F)F)c(F)c4n2)OCCN3CCN(C)C)C1` (single isomer, unassigned) [Example 514]: the values for the concentration for half-maximal inhibition (IC50) (against KRAS G12D; in experiment [2]; on KRAS wild type) were 0.817 µM, not below 10 µM and 4.12 µM, respectively.

As for `C=C1CN2CCC[C@@]2(COc2nc3c4c(c(Cl)c(-c5nc(N)cc(C)c5C(F)(F)F)cc4n2)OCCN3CCN(C)C)C1` [Example 511], the IC50 was determined as 2.96 µM in experiment [1]; 0.00607 µM on KRAS G12D; 8.05 µM in experiment [2]; 2.24 µM in experiment [3]; 0.0484 µM against KRAS wild type.

Take `Cc1cc(N)nc(-c2cc3ncnc4c3c(c2Cl)OCCN4CCN2CCOCC2)c1C(F)(F)F` [Example 504]: the IC50 in experiment [1] is 18.5 µM; against KRAS G12D, 3.46 µM; in experiment [2], not below 10 µM; in experiment [3], 14.9 µM; on KRAS wild type, 15.1 µM.

As for `Cc1cc(N)nc(-c2cc3ncnc4c3c(c2Cl)OC[C@H](CC#N)N4C2CCNC2)c1C(F)(F)F` (single isomer, unassigned) [Example 507], the IC50 against KRAS G12D is 0.276 µM; in experiment [2], not below 10 µM; at KRAS wild type it was 8.65 µM.

Consider `C=C1CN2CCC[C@@]2(COc2nc3c4c(c(Cl)c(-c5nc(N)cc(C)c5C(F)(F)F)c(F)c4n2)OCCN3CCN(C)C)C1` (single isomer, unassigned) [Example 513], for which the half-inhibitory concentration (IC50) in experiment [1] stood at 2.29 µM; against KRAS G12D, 0.00155 µM; in experiment [2], 2.58 µM; in experiment [3], 1.08 µM; against KRAS wild type, 0.0108 µM.

Take `Cc1cc(N)nc(-c2cc3ncnc4c3c(c2Cl)OCCN4C2CCNC2)c1C(F)(F)F` (stereo not drawn) [Example 506]: the 50% inhibitory concentration (IC50) against KRAS G12D was 2.4 µM; in experiment [2], not below 10 µM; against KRAS wild type it was 55 µM.

`Cc1cc(N)nc(-c2cc3nc(OCC45CCCN4CCC5)nc4c3c(c2Cl)OCCN4CCN(C)C)c1C(F)(F)F` [Example 510]: the IC50 at KRAS G12D was 0.0136 µM; in experiment [2], not below 10 µM; on KRAS wild type it was 0.24 µM.

For the compound `CNCCN1CCOc2c(Cl)c(-c3nc(N)cc(C)c3C(F)(F)F)cc3ncnc1c23` [Example 503], the IC50 is 4.62 µM against KRAS G12D, not below 10 µM in experiment [2] and 94.3 µM on KRAS wild type.
